From patent publication US7105564B1, “Pharmaceutical composition comprising a dual antagonist against PGD2/TXA2 receptors having a [2.2.1] or [3.1.1] bicyclic skeleton” (Shionogi & Co., Ltd., priority 1999, dated 2006) come the findings set out here.

As usually defined, the IC50 is the point on the concentration scale where inhibition reaches its midpoint.

In one test the target is T1, TXA2 receptor (Homo sapiens, UniProt P21731).
T1 construct: The human platelet membrane fraction was prepared in accordance with Experiment 1 (1); from tissue; host or cells: human platelet membrane fraction from blood of healthy volunteers
T1 sequence (P21731 1-343): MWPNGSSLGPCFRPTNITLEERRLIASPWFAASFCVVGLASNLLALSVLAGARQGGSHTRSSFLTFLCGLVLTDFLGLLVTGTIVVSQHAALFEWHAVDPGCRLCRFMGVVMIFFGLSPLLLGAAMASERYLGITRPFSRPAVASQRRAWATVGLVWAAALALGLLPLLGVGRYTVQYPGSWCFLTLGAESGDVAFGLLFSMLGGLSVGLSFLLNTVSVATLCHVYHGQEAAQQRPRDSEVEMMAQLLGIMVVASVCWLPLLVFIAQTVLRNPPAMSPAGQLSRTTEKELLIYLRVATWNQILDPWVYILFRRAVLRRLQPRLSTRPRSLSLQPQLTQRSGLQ
The test is described as follows: Binding activity to TXA2 receptor in human platelet membrane fraction ([3H](+)-S-145 sodium salt). Here is the method:
Experiment 2 Binding activity to TXA2 Receptor
(§1) (1) Preparation of Human Platelet Membrane Fraction
The human platelet membrane fraction was prepared in accordance with Experiment 1 (1).
(2) Binding to TXA2 Receptor
To a binding-reaction solution (50 mM Tris/HCl, pH 7.4, 10 mM MgCl2) (0.2 ml) were added the human platelet membrane fraction (0.05 mg) and 2 nM Sodium [^3H](+)-(5Z)-7- [3-endo- [(phenylsulfonyl)amino]bicyclo[2.2.1]hept-2-exo-yl]heptenoate (Japanese Patent Publication (Kokoku) No.79060/1993, hereinafter referred to as (+)—S—145 sodium salt) (26.4 Ci/mmol), and the mixture was reacted at room temperature for 90 min. After the reaction, the resultant mixture was filtered through a glass fiber filter paper and washed several times with cooled physiological saline, then the radioactivity retained on the filter paper was measured. The specific-binding ratio was calculated by subtracting the non-specific binding ratio (the radio activity similarly determined in the presence of 10 μM (+)—S—145 sodium salt) from the total binding.

The target in test [1] is T2, PGD2 receptor (Homo sapiens, UniProt Q13258).
T2 sequence (Q13258 1-359): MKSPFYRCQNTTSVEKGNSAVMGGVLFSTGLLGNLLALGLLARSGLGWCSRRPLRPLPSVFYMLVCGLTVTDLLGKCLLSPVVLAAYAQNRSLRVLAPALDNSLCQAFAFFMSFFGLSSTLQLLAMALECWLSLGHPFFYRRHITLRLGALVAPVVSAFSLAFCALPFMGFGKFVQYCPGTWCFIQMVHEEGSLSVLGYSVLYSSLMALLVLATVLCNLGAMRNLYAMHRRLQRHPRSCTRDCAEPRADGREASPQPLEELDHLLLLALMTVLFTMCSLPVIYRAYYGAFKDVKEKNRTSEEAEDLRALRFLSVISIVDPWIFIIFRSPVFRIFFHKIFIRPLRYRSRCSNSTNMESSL
As to the kind of experiment: Antagonistic activity against PGD2 receptor using human platelet (inhibition of cAMP increase caused by PGD2). The format is cell-based. Here is the method: Experiment 3 Evaluation of Antagonistic Activity Against PGD2 Receptor Using Human Platelet
Peripheral blood was collected from a healthy volunteer using a syringe in which 1/9 volume of a citric acid/dextrose solution was previously added. The sample was subjected to centrifugation at 180 g for 10 min to obtain the supernatant (PRP: platelet rich plasma). The resultant PRP was washed 3 times with a washing buffer and the number of platelets was counted with a micro cell counter. A suspension adjusted to contain the platelets at a final concentration of 5×10^8/ml was warmed at 37° C., then subjected to the pre-treatment with 3-isobutyl-1-methylxanthine (0.5 mM) for 5 min. To the suspension was added a test compound diluted at various concentration, and 10 minutes later, 0.1 μM PGD2 was added to induce the reaction 2 minutes later, hydrochloric acid was added to terminate the reaction. The platelet was destroyed with an ultrasonic homogenizer. After centrifugation, the cAMP in the supernatant was determined by radioimmunoassay. PGD2 receptor antagonism of a drug was evaluated as follows: the inhibition rate regarding cAMP increased by the addition of PGD2 was determined at each concentration, and the concentration of the drug required for 50% inhibition (IC50) was calculated.

In test [2] the test system is Male Hartley guinea pigs. As to the kind of experiment: Antigen-induced bronchial hyperresponsiveness. As to conditions: for Log PD200: acetylcholine dose for 200% increase in bronchoconstriction; for induction of bronchial hyperresponsiveness (in words): summary of Tables 34-36. Type of test: in vivo, guinea pig. Here is the method:
Antigen-induced bronchial hyperresponsiveness
Male Hartley guinea pigs were actively sensitized to ovalbumin (OVA) by inhalation of aerosolized solution of 1% ovalbumin twice at a week interval. One week after the second sensitization, the animals were treated with antihistamine, diphenhydramine (10 mg/kg, i.p.), and then challenged with 1% OVA aerosol for 5 min. Twenty four hours later, acetylcholine at doses at 3.13, 6. 25, 12.5, 25, 50 and 100 micro g/kg was sequentially injected into the animals which were anesthetized with pentobarbital (30 mg/kg, i.p.). The bronchoconstriction induced by each dose of acetylcholine was monitored by the modified method of Konzett-Rössler technique, and made a dose-response curve of acetylcholine. Using the dose-response curve, the dose required for 200% increase in bronchoconstriction from baseline (PD200) was calculated in each animal and used as an indication of bronchial responsiveness. Compounds were orally administered 1 hour before antigen challenge. **: P<0.01 vs Vehicle(Dunnett's test), ##: P<0.01 vs Vehicle(Student's t test).

In test [3] the test system is Male Hartley guinea pigs. As to the kind of experiment: Antigen-induced bronchoconstriction. The format is in vivo, guinea pig. To be noted: for antigen-induced bronchoconstriction (in words): summary of Tables 40-42. Here is the method:
Antigen-induced bronchoconstriction
Male Hartley guinea pigs were passively sensitized by intravenous injection of anti-OVA serum (antibody titer: 1: 3200), and 48 hours later, the animals were challenged by intravenous injection of OVA (70 micro g/kg). The bronchoconstriction induced by antigen was continuously monitored by means of modified method of Konzett-Rössler technique. The peak value of bronchoconstriction in each animal was used for evaluation of compounds. Compound (I-1b) and compound (B-2) were orally administered 1 hour before, compound (A) 2 hours before antigen challenge. The results are shown as follows. *: P<0.05 vs Vehicle, ##: P<0.01 vs Vehicle. ( ): inhibition %.

Test [4] deals with T2, PGD2 receptor. As to the kind of experiment: Binding activity to PGD2 receptor in human platelet membrane fraction ([3H]PGD2). Also on record: The platelets were homogenized using a homogenizer (Ultra-Turrax) followed by centrifugation 3 times at 20,000 rpm; from tissue; host or cells: human platelet membrane fraction from blood of healthy volunteers. On the procedure:
Experiment 1 Binding activity to PGD2 Receptor
as §1
Blood was collected using a plastic syringe containing 3.8% sodium citrate from the vein of healthy volunteers (adult male and female), then put into a plastic test tube and mixed by slow-reversion. The sample was then centrifuged at 1800 rpm, for 10 min at room temperature, and the supernatant containing PRP (platelet-rich plasma) was collected. The PRP was recentrifuged at 2300 rpm, for 22 min at room temperature to obtain platelets. The platelets were homogenized using a homogenizer (Ultra-Turrax) followed by centrifugation 3 times at 20,000 rpm, 10 min at 4° C.. to obtain a platelet membrane fraction. After protein determination, the membrane fraction was adjusted to 2 mg/ml and preserved in a refrigerator at −80° C.. until using for the binding test.
(2) Binding to PGD2 Receptor
To a binding-reaction solution (50 mM Tris/HCl, pH 7.4, 5 mM MgCl2) (0.2 ml) were added the human platelet membrane fraction (0.1 mg) and 5 nM [^3H]PGD2 (115 Ci/mmol), and the mixture was reacted at 4° C. for 90 min. After the reaction, the mixture was filtered through a glass fiber filter paper and washed several times with cooled physiological saline, then the radioactivity retained on the filter paper was measured. The specific-binding ratio was calculated by subtracting the non-specific binding ratio which is the radioactivity similarly measured in the presence of 10 μM PGD2 from the total binding.

Test [5] relates to Male Hartley guinea pigs. As to the kind of experiment: Antigen-induced increase in the eosinophil number in bronchoalveolar lavage fluid. To be noted: for Eosinophils, inhibition % / Total cells, inhibition % / Cell number, Eosinophils / Cell number, Total cells: 10 mg/kg orally, 1 hour before and 24 and 48 hours after challenge; for Cell number, Eosinophils / Cell number, Total cells: BAL 72 hours; for eosinophil infiltration (in words): summary of Tables 37-39. Type of test: in vivo, guinea pig. Here is the method: Antigen-induced increase in the eosinophil number in bronchoalveolar lavage fluid.
As described above, the animals were sensitized and challenged with antigen, seventy-two hours later, bronchoalveolar lavage was performed with 10 mL of saline. After the number of total cells in the recovered fluid was counted, smear samples were made. The samples were stained with May Grünward-Giemsa Stain, and differential cell count was performed by counting 500 cells/each sample. The eosinophil number was calculated by the ratio of the number of eosinophils, macrophages, neutrophils and lymphocytes. Compounds were orally administered three times 1 hour before and 24 and 48 hours after the challenge. The results are shown as follows. *: P<0.05, * *: P<0.01 vs Vehicle(Dunnett's test), : P<0. 01 vs Vehicle(Student's t test). ( ): inhibition %.

[6] abbreviates: Comparative Experiment 1, read-out: Experiment 3 Antaginistic activity against PGD2 receptor IC50.
Where [7] appears, read: 1 mg/kg orally 1 hour before antigen challenge.
Where [8] appears, read: 10 mg/kg orally 1 hour before antigen challenge.
Setting [9] is: Comparative Experiment 1, read-out: Experiment 1 Antaginistic activity against PGD2 receptor IC50.
Setting [10] is: 3 mg/kg orally 2 hours before antigen challenge.
Setting [11] is: 10 mg/kg orally 2 hours before antigen challenge.
Setting [12] is: 30 mg/kg orally 1 hour before antigen challenge.

Read-outs that look alike come from different tables or passages of the source. Marks after values point to notes of the source that are not given here.

Regarding `O=C(O)CCC/C=C\C[C@H]1[C@@H]2CC[C@@H](C2)[C@@H]1NC(=O)c1ccc(S(=O)(=O)n2cccc2)s1` [Compound I-1b, (5Z)-7-{(1R,2S,3S,4S)-3-[5-(pyrrol-1-ylsulfonyl)-thiophen-2-ylcarbonylamino]-bicyclo[2.2.1]hept-2-yl}-5-heptenoic acid], the IC50 worked out at 3 nM on TXA2 receptor (2 nM [3H](+)-S-145 sodium salt, room temperature, 90 min, read-out: Binding activity to TXA2 receptor in human platelet membrane fraction IC50); 3 nM at TXA2 receptor (Comparative Experiment 1, read-out: Experiment 2 Antaginistic activity against TXA2 receptor IC50); 1.3 nM on PGD2 receptor [1] (0.1 μM PGD2, read-out: Inhibitory activity for the increase of cAMP caused by PGD2 in human platelet IC50); 1.3 nM on PGD2 receptor [1] (setting [6]); 4.3 nM on PGD2 receptor [4] (5 nM [3H]PGD2, 4° C., 90 min, read-out: Binding activity to PGD2 receptor in human platelet membrane fraction IC50); 4.3 nM on PGD2 receptor [4] (setting [9]). The “Log PD200” value was 1.25 ± 0.05 in the test on Male Hartley guinea pigs [2] (setting [7]) and 1.52 ± 0.06** in the test on Male Hartley guinea pigs [2] (setting [8]). Moreover, the Peak bronchoconstriction in the test with Male Hartley guinea pigs [3] (setting [7]) is 47.4 ± 11.4 cm H2O; in the test on Male Hartley guinea pigs [3] (setting [8]) it was 28.4 ± 12.9 cm H2O. For the same compound, the “Peak bronchoconstriction, inhibition %” value with Male Hartley guinea pigs [3] (setting [7]) worked out at 31%; in the test with Male Hartley guinea pigs [3] (setting [8]), 58%.
With `O=C(O)CCC/C=C\C[C@H]1[C@@H]2CC[C@@H](C2)[C@@H]1NS(=O)(=O)c1ccccc1` [A], the IC50 on PGD2 receptor [1] (setting [6]) is over 10000 nM. In addition, the “Log PD200” value in the test with Male Hartley guinea pigs [2] (setting [7]) turned out to be 1.29 ± 0.04. Moreover, in the test on Male Hartley guinea pigs [2] (setting [8]), the “Log PD200” value is 1.61 ± 0.09**. The “induction of bronchial hyperresponsiveness (in words)” value with Male Hartley guinea pigs [2] is reported as “suppressed”. Further, in the test on Male Hartley guinea pigs [5], the “Eosinophils, inhibition %” value was −18%; the “Total cells, inhibition %” value is −18%; the “Cell number, Eosinophils” value is on record as 4.90 ± 0.73 ×10^6 cells/animal; the “Cell number, Total cells” value was 13.78 ± 1.75 ×10^6 cells/animal. Further, the “eosinophil infiltration (in words)” value with Male Hartley guinea pigs [5] was “did not show any inhibitory actions”. Further, in the test on Male Hartley guinea pigs [3] (setting [10]), the Peak bronchoconstriction was 55.3 ± 6.7 cm H2O and the “Peak bronchoconstriction, inhibition %” value was determined as 7%. Moreover, in the test on Male Hartley guinea pigs [3] (setting [11]), the Peak bronchoconstriction worked out at 18.8 ± 3.3 cm H2O and the “Peak bronchoconstriction, inhibition %” value is 68%. Further, in the test with Male Hartley guinea pigs [3], the “antigen-induced bronchoconstriction (in words)” value is recorded as “dramatically suppressed”. For the same compound, at PGD2 receptor [4] (setting [9]), the IC50 is over 10000 nM.
As for `CC1(C)[C@H]2C[C@H](C/C=C\CCCC(=O)O)[C@@H](NC(=O)c3csc4ccc(O)cc34)[C@@H]1C2` [Compound B-2], the “Log PD200” value in the test on Male Hartley guinea pigs [2] (setting [8]) was 1.17 ± 0.05. Further, the “induction of bronchial hyperresponsiveness (in words)” value in the test on Male Hartley guinea pigs [2] was “did not inhibit”. In addition, in the test on Male Hartley guinea pigs [5], the “Eosinophils, inhibition %” value is reported as 43%; the “Total cells, inhibition %” value stood at 45%; the “Cell number, Eosinophils” value is listed as 4.49 ± 0.63 ×10^6 cells/animal; the “Cell number, Total cells” value was 13.01 ± 1.58 ×10^6 cells/animal. Besides, the “eosinophil infiltration (in words)” value with Male Hartley guinea pigs [5] is recorded as “significantly suppressed”. Further, in the test on Male Hartley guinea pigs [3] (setting [7]), the Peak bronchoconstriction amounted to 36.5 ± 18.2 cm H2O and the “Peak bronchoconstriction, inhibition %” value is given as −20%. Also, in the test with Male Hartley guinea pigs [3] (setting [12]), the Peak bronchoconstriction stood at 51.8 ± 16.3 cm H2O and the “Peak bronchoconstriction, inhibition %” value was −71%. Also, the “antigen-induced bronchoconstriction (in words)” value with Male Hartley guinea pigs [3] was “did not suppress”.
